Data reported in patent US9221900B2, “Methods for identifying safe and functional humanized antibodies” (AC IMMUNE S.A., priority 2010, dated 2015).

How the values were obtained:
[1] = tested on: primary cortical cultures; assay: Intracellular Aβ1-42 accumulation ELISA on trypsin-cleared cells; assay type: cell-based, rat
Method: FIG. 3 provides graphs and immunocytochemical images corresponding to the experiments described in Example 6.4. Aβ1-42 oligomer binding to neurites was reduced by the anti-Aβ IgG4 monoclonal antibody. […] Green indicates staining with TuJ1, red indicates labeling with anti-Aβ (clone 6E10), and blue indicates staining with DAPI. […] Quantitative measures of fluorescence are shown for 30 min treatment and 18 h treatment (B). Mean results (±SEM) of two experiments are shown. […] Cortical cultures from P1 rats were treated as described for (A), except that Aβ1-42 tagged with HyLite Fluor-488 was used (C). Aβ1-42-labeled samples are shown in the upper panel and DAPI-stained samples are shown in the lower panel. […] Aβ1-42 fluorescence was quantified, with the mean (±SD) of the two independent experiments shown (D). […]
The intracellular accumulation of Aβ1-42 was determined in trypsin-cleared cells using an ELISA assay.
To measure intracellular Aβ1-42 accumulation by ELISA, primary cortical cultures were treated in 6-well cell-culture plates (Costar) after which they were washed and trypsin-cleared (Bateman et al., 2007) before lysis in cell-lysis buffer consisting of 50 mM Tris-HCl (pH 8.0), 150 mM NaCl, 5 mM EDTA, 1 mM sodium orthovanadate, 1% Triton X-100, and containing protease- and phosphatase-inhibitor cocktails. Protein concentration was determined by the BCA assay (Pierce). […]

[2] = tested on: mouse embryonic cortical neurons; assay: Aβ1-42-induced degeneration of embryonic cortical neurons, TuJ1 immunofluorescence; assay type: cell-based; details: Aβ1-42 with MABT for four days
Method: FIG. 2 provides graphs and immunocytochemical images corresponding to the experiments described in Example 6.3. […] An MTT assay was used to determine cell viability as described in the Methods section. The means (±SEM) of five independent experiments are shown. *P<0.05, **P<0.01. […] Neurotoxicity following extended Aβ1-42 oligomer treatment was tested by morphological analyses (C).
A non-specific IgG monoclonal antibody was used as a control in all experiments.
The cytotoxicity of Aβ1-42 oligomers was tested on mixed cortical cultures at DIV 5. All antibodies, at a final concentration of 100 μg/mL, were co-incubated with Aβ1-42 oligomers for 30 min in serum-free cell culture medium at 37° C. before treatment of cells. For some experiments, mixed cortical cultures were pre-treated for 1 h with 1 μM SB239063, a potent second-generation p38 inhibitor, before treatment with Aβ1-42 oligomers. […] Briefly, for the last 3 h of treatment, cells grown in 96-well plates (Costar) were incubated with the MTT dye solution and the generation of a blue formazan product was measured by reading absorbance at 570 and 690 nm using a plate reader (Tecan). […] A FITC-labeled secondary antibody was used to visualize microtubules using fluorescence microscopy.

Aβ1-42 [3] = target: Aβ1-42 (Homo sapiens, UniProt P05067); assay: Aβ ELISA, binding to Aβ peptides and Aβ1-42 assembly states; set-up: purchased Bachem; details: ELISA; monomeric, oligomeric, fibers, oligomer assemblies
Excerpt: (§1) FIG. 1 provides graphs and immunohistochemical images corresponding to the experiments described in Example 6.1 and 6.2. […] As a control, an anti-Aβ IgG monoclonal antibody with a N-terminal epitope was used. […] The mean (±SEM) of two assays is shown.
(§2) Murine anti-Aβ monoclonal antibodies were generated by immunizing mice with an Aβ peptide antigen using a liposomal vaccine formulation as previously described (Muhs et al., 2007). Several criteria were used to select candidate antibodies, including the ability to bind multiple Aβ species and to inhibit Aβ1-42 assembly into small cytotoxic peptide aggregates. A monoclonal murine mAb with an IgG2b backbone (mMABT) was selected for in vivo functionality studies using both single-transgenic murine mutant human APP and double-transgenic murine mutant human APP/PS1 models of Alzheimer's Disease. […] These ranged from monomeric and oligomeric Aβ1-42 fractions isolated by size-exclusion chromatography (SEC), mature Aβ1-42 fibers, to a more complex mixture of highly neurotoxic Aβ1-42 oligomer assemblies, ranging in size from dimers and trimers to higher molecular-weight multimers (see FIG. 8).

[4] = tested on: Aβ plaques in the brains of transgenic mice expressing hAPP; assay: Immunostaining of Aβ plaques in brain sections of hAPP transgenic mice; assay type: binding; details: hAPP transgenic mouse brain sections
Excerpt: as §1

Aβ1-42 [5] = assay: Aβ ELISA, binding to Aβ peptides and Aβ1-42 assembly states; set-up: species or system human; details: Aβ ELISA; human and murine Aβ1-42 and human Aβ1-40
Excerpt: as §1, §2

Chain of Aβ1-42 (Homo sapiens, UniProt P05067) (P05067 672-713): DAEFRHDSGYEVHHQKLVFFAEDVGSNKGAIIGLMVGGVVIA

Q: With “MABT: humanized anti-Aβ monoclonal antibody of IgG4 isotype, affinity matured and humanized form of mouse mMABT” as the substance, how does the “reduction of Aβ1-42 oligomer internalization (intracellular accumulation)” value [1] read?
A: more than 60%

Q: And the “neuronal morphology after Aβ1-42 treatment” value [2]?
A: appeared similar to control cells

Q: What about the “binding to different Aβ1-42 peptide preparations” value (Aβ1-42 [3]) of the same substance?
A: highly comparable among the different Aβ1-42 assembly states

Q: And the “binding to Aβ plaques” value [4]?
A: immunodecorated

Q: And the “binding to different Aβ peptides” value (Aβ1-42 [5])?
A: bound with high affinity
